Assay results: patent US20250197424A1, “QUINOLINE COMPOUND AND USE THEREOF” (SHANGHAI PHARMACEUTICALS HOLDING CO., LTD., priority 2022, published 2025)
Structures can show the parent of a compound that is named as a salt. Where two headings read alike, the source gives them in different places.

Assays:
[1] = target: GTP-KRAS-G12D:SOS1 (Homo sapiens (Human), UniProt P01116, G12D); experiment: GTP-KRAS-G12D:SOS1 binding inhibition
Method: (§1) The IC50 of the compounds was fitted using a nonlinear regression equation with GraphPad Prism 8. The results are presented in Table 2: • Negative control: DMSO • Positive control: 100 μM BI-2852
(§2) The following nonlinear fitting formula was used to obtain the IC50 (half-maximal inhibitory concentration) of the compounds:
(§3) [formula] • X: logarithm of the compound concentration • Y: 665/615 Ratio

[2] = target: GTP-KRAS-G12D:CRAF (Homo sapiens (Human), UniProt P01116, G12D); experiment: GTP-KRAS-G12D:CRAF binding inhibition
Method: The IC50 of the compounds was fitted using a nonlinear regression equation with GraphPad Prism 8. The results are presented in Table 2: • Negative control: DMSO • Positive control: 100 μM BI-2852 The following nonlinear fitting formula was used to obtain the IC50 (half-maximal inhibitory concentration) of the compounds: [formula] • X: logarithm of the compound concentration • Y: 665/615 Ratio

[3] = target: GTP-KRAS-WT:SOS1 (Homo sapiens (Human), UniProt P01116); experiment: KRAS_WT and SOS1 binding inhibition (KRAS-WT/SOS1 binding kit, 665/615 ratio); conditions: GTP 10 μM
Text: To detect the inhibitory capability of small molecule compounds on the binding activity between KRAS_WT and SOS1 using a drug screening system based on the binding of KRAS_WT and SOS1 interaction.
a) BI-2852 was used as a positive control, with its stock solution as the first dilution point, followed by a 3-fold dilution, making a total of 10+0 dilutions. Similarly, the first dilution point of the test compounds was also their respective stock solutions, followed by a 3-fold dilution, making a total of 11+0 dilutions. Using Echo, 0.2 μL of the gradient-diluted compound solutions were transferred into a 384-well plate, with each compound tested in duplicate. The final DMSO concentration was 1%. The plate was centrifuged at 1000 rpm for 1 minute. The final concentrations of the positive controls were 100, 33.33, 11.11, 3.70, 1.23, 0.412, 0.137, 0.046, 0.015, 0.005, and 0 μM. The final concentrations of the test compounds were […], 0.01, and 0 μM.
b) KRAS_WT from the kit was prepared with GTP at a final concentration of 10 μM in the dilution buffer, and 5 μL was transferred into the 384-well reaction plate. The plate was centrifuged at 1000 rpm for 1 minute.
c) Subsequently, 5 μL of the SOS1 mixture was transferred into the 384-well reaction plate. The plate was centrifuged at 1000 rpm for 1 minute and incubated at 25° C. for 15 minutes.
d) 10 μL of the detection mixture was transferred into the 384-well reaction plate. The plate was centrifuged at 1000 rpm for 1 minute and incubated overnight at 4° C.
e) The […] and emission wavelength at 615 nm were read using an Envision multimode plate reader. The 665/615 ratio signal intensity was used to characterize the enzyme activity.
as §1, §2, §3

[4] = tested on: Panc-1 (KRASG12D pancreatic cancer cell) CDX model; type: in vivo, Nu/Nu nude mice
Method: Female Nu/Nu nude mice, approximately 8 to 10 weeks old, (Beijing Vital River Laboratory Animal Technology Co., Ltd) were used in these studies. The animals were maintained in individually ventilated cages with a 12-hour light/dark cycle. Food and water were available ad libitum. Panc-1 tumor cells were maintained in vitro at 37° C. in an atmosphere containing 5% CO2 using DMED medium supplemented with 10% fetal bovine serum. Prior to tumor inoculation, cells in the exponential growth phase were harvested and quantified using a cell counter. Panc-1 tumor cells (1×10^7) in 0.2 mL PBS were subcutaneously inoculated into the right flank of each mouse. Randomization was initiated when the average tumor size reached approximately 154.21 mm^3. A total of 9 tumor-bearing mice were enrolled in the study, and these mice were allocated into […] (3 mice per group). Additionally, 3 non-tumor-bearing mice were assigned to the untreated group.
The animals were treated […] via intravenous injection (I.V.) with either a vehicle (10% HP-β-CD) or the vehicle containing the indicated dose of the compound, for approximately 28 days (QD×28 I.V.), or until ethical endpoints were reached (BWL>20%; median tumor volume (MTV)>2000 mm^3; individual TV>3000 mm^3; clinical signs of discomfort). […]
Tumor volume was measured in two dimensions using calipers twice weekly after randomization, and the volume was calculated in mm^3 using the formula: V=(L×W×W)×0.5, where V is the tumor volume, L is the tumor length (the longest tumor dimension), and W is the tumor width (the longest tumor dimension perpendicular to L). […] Tumor growth inhibition (TGI %) was calculated using the formula: TGI %=[1−(Ti/Ci)]×100, where Ti is the median tumor volume in the treatment group on the measurement day, and Ci is the median tumor volume in the control group on the measurement day.

| Compound | IC50 ([1]; dihydrochloride) | IC50 ([2]; dihydrochloride) | IC50 ([3]; dihydrochloride) | IC50 [1] | IC50 [2] | IC50 [3] | TGI (%) Day 28 ([4]; Panc-1 KRASG12D in Nu/Nu, 10 mg/kg QD IV, Day 28) | BWL (%) Day 14 ([4]; mouse, in vivo, iv, 10 mg/kg) | BWL (%) Day 28 ([4]; mouse, in vivo, iv, 10 mg/kg) |
| --- | --- | --- | --- | --- | --- | --- | --- | --- | --- |
| CC1CC2(CCc3c(nc(OC[C@@]45CCCN4C[C@H](F)C5)nc3N3C[C@H]4CC[C@@H](C3)N4)C2)c2cc(O)cc(Cl)c21 (single isomer, unassigned) [Compound 7ab, (1R or 1S, 3S or 3R)-4′-((1R,5S)-3,8-diazabicyclo[3.2.1]octan-3-yl)-4-chloro-2′-(((2R,7aS)-2-fluorotetrahydro-1H-pyrrolizin-7a(5H)-yl)methoxy)-3-methyl-2,3,5′,8′-tetrahydro-6′H-spiro[indene-1,7′-quinazolin]-6-ol dihydrochloride] | 0.0174 µM | 0.0848 µM | 0.582 µM | – | – | – | – | – | – |
| (R or S)-4-((5aS,6R,9S)-1,3-difluoro-13-((2R,7aS)-2-fluorotetrahydro-1H-pyrrolizin-7a(5H)-ylmethoxy)-5a,6,7,8,9,10-hexahydro-5H-6,9-epiminoazepino[2′,1′:3,4][1,4]oxazepino[5,6,7-de]quinazolin-2-yl)-5-ethynyl-6-fluoronaphthalen-2-ol [4b′] | – | – | – | 0.0183 µM | 0.00822 µM | 0.0056 µM | – | – | – |
| Oc1cc(-c2cc3c4c(nc(OC[C@@]56CCCN5C[C@H](F)C6)nc4c2F)N2C[C@@H]4CC[C@@H](N4)[C@H]2CO3)c2ccccc2c1 [Compound 3, dihydrochloride] | – | – | – | 0.0119 µM | 0.0123 µM | 0.0796 µM | – | – | – |
| CC1CC2(CCc3c(nc(OC[C@@]45CCCN4C[C@H](F)C5)nc3N3C[C@H]4CC[C@@H](C3)N4)C2)c2cc(O)cc(Cl)c21 (single isomer, unassigned) [Compound 7aa, (1R or 1S, 3R or 3S)-4′-((1R,5S)-3,8-diazabicyclo[3.2.1]octan-3-yl)-4-chloro-2′-(((2R,7aS)-2-fluorotetrahydro-1H-pyrrolizin-7a(5H)-yl)methoxy)-3-methyl-2,3,5′,8′-tetrahydro-6′H-spiro[indene-1,7′-quinazolin]-6-ol dihydrochloride] | 0.00995 µM | 0.0164 µM | 0.233 µM | – | – | – | – | – | – |
| Oc1cc(Cl)c2c(c1)C1(CC2)CCc2c(nc(OC[C@@]34CCCN3C[C@H](F)C4)nc2N2CC3CCC(C2)N3)C1F (single isomer, unassigned) [Compound 8a, (1S or 1R,8'S or 8′R)-4′-((1R,5S)-3,8-Diazabicyclo[3.2.1]octan-3-yl)-4-chloro-8′-fluoro-2′-(((2R,7aS)-2-fluorotetrahydro-1H-pyrrolizin-7a(5H)-yl)methoxy)-2,3,5′,8′-tetrahydro-6′H-spiro[indene-1,7′-quinazolin]-6-ol dihydrochloride] | – | – | – | 0.0135 µM | 0.0195 µM | 0.0612 µM | – | – | – |
| F[C@H]1CN2CCC[C@@]2(COc2nc3c(c(N4CC5CCC(C4)N5)n2)CCC2(CCc4c(Cl)cccc42)C3)C1 (single isomer, unassigned) [Compound 1a, (S or R)-4′-((1R,5S)-3,8-Diazabicyclo[3.2.1]octan-3-yl)-4-chloro-2′-((2R,7aS)-2-fluorotetrahydro-1H-pyrrolizin-7a(5H)-ylmethoxy)-2,3,5′,8′-tetrahydro-6′H-spiro[indene-1,7′-quinazoline]dihydrochloride] | – | – | – | 0.0456 µM | 0.333 µM | 4.1 µM | – | – | – |
| CCc1cccc2cc(O)cc(-c3c(F)c4c5c(nc(OC[C@@]67CCCN6C[C@H](F)C7)nc5c3F)N3CC5CCC(N5)C3CO4)c12 (single isomer, unassigned) [Compound 5a, (S or R)-4-((5aS,6S,9R)-1,3-Difluoro-13-(((2R,7aS)-2-fluorotetrahydro-1H-pyrrolizin-7a(5H)-yl)methoxy)-5a,6,7,8,9,10-hexahydro-5H-6,9-epiminoazepino[2′,1′:3,4][1,4]oxazepino[5,6,7-de]quinazolin-2-yl)-5-ethylnaphthalen-2-ol dihydrochloride] | – | – | – | 0.0145 µM | 0.00581 µM | 0.0114 µM | 96% | −0.77% | −1.58% |
